{"source": "patent US9969696B2", "about": "“Compounds as inhibitor of DNA double-strand break repair, methods and applications thereof” (INDIAN INSTITUTE OF SCIENCE, priority 2012, dated 2018)", "key": {"A549": {"test_system": "A549", "experiment": "MTT assay, A549", "format": "cell-based", "details": "Homo sapiens"}, "A2780": {"test_system": "A2780", "experiment": "MTT assay, A2780", "format": "cell-based", "details": "Homo sapiens"}, "Dalton's lymphoma": {"test_system": "Dalton's lymphoma", "experiment": "Dalton's lymphoma (DLA) mouse model", "format": "in vivo, mice", "from_the_text": "(§1) Data shown is from three independent batches of experiments containing 8 animals each. […] B-1 and B-2. […] Data shown is from two independent batches of experiments containing 10 animals each. […] C.\nData shown is from two independent batches of experiments containing 5 animals each. […] C. […] DMSO treated cells are used as vehicle control. γH2AX foci formation is detected as described in FIG. 10. […] Data shown are from three independent experiments and in each case foci from a minimum of about 50 cells are counted. In panels A, B, C, D, E, significance levels are indicated (ns: not significant, *p<0.05, **p<0.01, ***p<0.001)."}, "[1]": {"experiment": "Assessment of side effects in mice", "format": "in vivo, BALB/c mice", "details": "six doses on six alternative days", "from_the_text": "Six doses of Compound 1 are administrated to the BALB/c (n=7) mice for six alternative days.\nFIG. 11 depicts the assessment of side effects of Compound 1 treatment on mice. A. Bar graph represents average weight changes in the both the controls (n=10) and Compound 1 treated mice (n=7). In all the cases, error bars indicate mean±standard error mean (SEM). B. Serum profile on mice administered with Compound 1 at day 28. Values indicated are mean±SEM (n=10)."}, "HeLa": {"test_system": "HeLa", "experiment": "MTT assay, HeLa", "format": "cell-based, human"}, "K562": {"test_system": "K562", "experiment": "MTT assay, K562", "format": "cell-based", "details": "Homo sapiens"}, "[2]": {"biological_target": "T1, DNA binding domain (DBD) of Ligase IV (Homo sapiens, UniProt P49917)", "T1 construct": "Ligase IV or DBD of Ligase IV alone is overexpressed, purified; made in house", "T1 sequence (P49917 1-251 limits assumed)": "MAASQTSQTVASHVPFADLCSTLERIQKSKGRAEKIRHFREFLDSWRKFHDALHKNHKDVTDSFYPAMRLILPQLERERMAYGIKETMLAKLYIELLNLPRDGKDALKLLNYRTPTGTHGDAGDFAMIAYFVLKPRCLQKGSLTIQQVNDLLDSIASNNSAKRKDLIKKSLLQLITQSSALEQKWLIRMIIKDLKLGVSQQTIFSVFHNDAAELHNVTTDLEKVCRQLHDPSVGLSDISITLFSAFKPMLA", "experiment": "CD spectroscopy, DBD of Ligase IV", "details": "200-260 nm", "experimental": "(§2) A. Western blot analysis of KU70 and KU80 proteins in purified fractions. W is wash, 1, 2 and 3 are different fractions. B. Binding of KU proteins to DNA breaks. [−γ^32P]ATP end-labeled oligomeric DNA substrate containing DSB is incubated for about 30 min on ice with purified KU or Ligase IV/XRCC4 complex. For Ligase IV/XRCC4 supershift, first KU and DNA are incubated followed by addition of Ligase IV/XRCC4 (about 60 fmol). Reaction mixture is resolved on 1-6% native gradient PAGE. C. […] After preincubation of KU with DNA substrates, Ligase IV/XRCC4 complex (about 60 fmol) and increasing concentrations of inhibitor (10, 50, 100, 200, 500 and 700µM) are added, incubated and products are resolved on a gradient native PAGE. D-1 and D-2. […] CD spectra are obtained at a wavelength of 200-260 nm for […]"}, "[3]": {"test_system": "breast adenocarcinoma induced tumor", "experiment": "Breast adenocarcinoma (EAC) solid tumor model in mice", "format": "in vivo", "details": "about 10 mg/kg, 6 doses, intramuscular, vs untreated controls", "from_the_text": "as §1"}, "CEM": {"test_system": "CEM", "experiment": "MTT assay, CEM", "format": "cell-based", "details": "Homo sapiens, CCRF-CEM"}, "DNA end joining (NHEJ)": {"test_system": "DNA end joining (NHEJ)", "experiment": "NHEJ assay, cell-free extracts prepared from rat testes", "format": "biochemical", "experimental": "ATP end-labeled oligomeric DNA substrate (75 bp) containing 4 nt overhangs at 5′ ends (about 2 h at 25° C.). In the case of vehicle control, DMSO is used. […] The reaction products are purified and resolved on about 8% denaturing polyacrylamide gel.\nFIG. 2 depicts the NHEJ assay and study of joining efficiency. A. Schematic representation of NHEJ assay and substrates containing DSBs. B. Comparison of the effect of potential Ligase IV inhibitors on DNA end joining. The joined products are indicated. “M” represents [g-32 ? P] ATP end-labeled 50 by ladder. C. Quantification of the joining efficiency. […] “PSLU” is “photostimulated luminescence unit”. […] Products are resolved on 1% agarose gel and visualized. Ethidium bromide is used as a positive control for the intercalation assay.\nThe reaction products are resolved on 8% denaturing PAGE. “M” represents [γ-^32P]ATP end-labeled 50 by ladder. […] “M” is a 2 log DNA ladder.\n(§3) A. Western blotting showing presence of Ligase IV/XRCC4 in eluted fractions. W is wash, 1 and 2 are different fractions. […] Concentrations of inhibitors used are indicated. For other details, FIG. 4 legend can be referred. C. […] Radiolabeled oligomeric DNA substrates containing 5′ compatible termini are then added to the reaction along with increasing concentrations of purified Ligase IV/XRCC4 complex (30, 60 and 120 fmol) and products are resolved on a PAGE. F. Bar diagram representing quantification of the complementation experiment performed on 5′-5′ and 5′-3′ noncomplementary ends. In all panels quantification of EJ based on 3 independent experiments is represented as mean±SEM."}, "Ligase IV/XRCC4 complex": {"biological_target": "T2, Ligase IV/XRCC4 complex (Homo sapiens, UniProt P49917)", "T2 construct": "made in house", "T2 sequence (P49917 whole entry)": "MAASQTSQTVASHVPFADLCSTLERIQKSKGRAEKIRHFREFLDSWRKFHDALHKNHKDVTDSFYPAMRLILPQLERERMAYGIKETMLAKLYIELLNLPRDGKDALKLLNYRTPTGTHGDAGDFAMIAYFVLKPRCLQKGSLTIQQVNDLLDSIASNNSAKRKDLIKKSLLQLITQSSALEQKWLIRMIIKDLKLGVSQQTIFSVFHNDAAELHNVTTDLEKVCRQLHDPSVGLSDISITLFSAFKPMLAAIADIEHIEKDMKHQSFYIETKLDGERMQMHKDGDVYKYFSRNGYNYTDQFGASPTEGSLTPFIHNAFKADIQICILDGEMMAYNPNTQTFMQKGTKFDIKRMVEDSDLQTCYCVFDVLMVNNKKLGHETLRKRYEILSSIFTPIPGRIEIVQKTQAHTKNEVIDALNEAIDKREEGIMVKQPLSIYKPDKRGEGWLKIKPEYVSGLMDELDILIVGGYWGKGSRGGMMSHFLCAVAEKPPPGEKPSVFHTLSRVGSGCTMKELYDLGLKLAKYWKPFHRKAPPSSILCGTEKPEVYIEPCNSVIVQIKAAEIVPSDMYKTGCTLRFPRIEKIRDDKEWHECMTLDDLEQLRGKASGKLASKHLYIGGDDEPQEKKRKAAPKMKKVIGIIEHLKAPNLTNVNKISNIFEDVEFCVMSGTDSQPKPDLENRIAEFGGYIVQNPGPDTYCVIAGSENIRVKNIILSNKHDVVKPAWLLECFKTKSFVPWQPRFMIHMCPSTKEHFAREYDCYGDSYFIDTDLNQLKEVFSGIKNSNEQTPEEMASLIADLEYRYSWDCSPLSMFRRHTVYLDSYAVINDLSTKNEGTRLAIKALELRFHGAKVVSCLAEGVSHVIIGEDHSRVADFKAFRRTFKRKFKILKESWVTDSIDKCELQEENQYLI", "T2 sequence (Q13426 whole entry partner)": "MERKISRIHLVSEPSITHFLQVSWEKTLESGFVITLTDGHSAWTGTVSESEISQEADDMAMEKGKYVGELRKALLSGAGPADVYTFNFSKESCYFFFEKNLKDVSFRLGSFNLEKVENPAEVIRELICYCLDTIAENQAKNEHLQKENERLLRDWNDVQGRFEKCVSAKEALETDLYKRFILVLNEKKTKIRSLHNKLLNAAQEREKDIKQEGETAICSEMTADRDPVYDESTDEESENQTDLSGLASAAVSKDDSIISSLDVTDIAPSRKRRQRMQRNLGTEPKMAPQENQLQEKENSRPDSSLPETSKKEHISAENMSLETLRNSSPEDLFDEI", "experiment": "DSB joining catalysed by purified Ligase IV/XRCC4 complex", "format": "biochemical", "details": "equimolar concentration of protein", "experimental": "as §3"}, "[4]": {"biological_target": "T3, Ligase IV/XRCC4 complex binding to DNA (Homo sapiens, UniProt P49917)", "T3 construct": "made in house", "T3 sequence (P49917 whole entry)": "as the sequence (P49917 whole entry) above", "T3 sequence (Q13426 whole entry partner)": "as the sequence (Q13426 whole entry partner) above", "experiment": "Gel supershift of Ligase IV/XRCC4 on KU:DNA complex", "details": "increasing concentrations 10-700 μM", "experimental": "as §2"}, "[5]": {"experiment": "Solubility (characterisation data)"}, "HeLa cells": {"test_system": "HeLa cells", "experiment": "γH2AX foci immunofluorescence, HeLa", "format": "cell-based, human"}}}
{"smiles": "Oc1nc(S)nc(/N=C/c2ccccc2)c1/N=C/c1ccccc1", "note": "[Compound 1, (5E,6E)-5,6-bis(benzylideneamino)-2-mercaptopyrimidin-4-ol]", "values": [{"measurement": "IC50", "setting": "A549", "result": "~35", "unit": "µM"}, {"measurement": "IC50", "setting": "A2780", "result": "~15", "unit": "µM"}, {"measurement": "Tumor growth, together with etoposide", "setting": "Dalton's lymphoma; 20 mg/kg + etoposide 10 mg/kg intraperitoneally", "result": "substantial reduction in tumor growth"}, {"measurement": "Tumor growth, in conjunction with radiation", "setting": "Dalton's lymphoma; about 20 mg/kg intraperitoneally + irradiation 2 Gy, 2 doses, 7 and 14 days", "result": "significant decrease in tumor growth"}, {"measurement": "Lifespan", "setting": "Dalton's lymphoma; about 20 mg/kg, 6 doses, Compound 1 alone", "result": "nor increase in lifespan"}, {"measurement": "Side effects", "setting": "[1]", "result": "No side-effects are observed"}, {"measurement": "Effect on cell proliferation (MTT)", "setting": "HeLa", "result": "dose-dependent effect on cell proliferation"}, {"measurement": "IC50", "setting": "K562", "result": "> 100", "unit": "µM"}, {"measurement": "CD spectrum of DBD upon addition of compound", "setting": "[2]", "result": "clear shift in the spectrum"}, {"measurement": "Tumor progression", "setting": "[3]", "result": "significantly reduces breast adenocarcinoma induced tumor"}, {"measurement": "IC50", "setting": "CEM", "result": "> 100", "unit": "µM"}, {"measurement": "End joining in testicular extracts", "setting": "DNA end joining (NHEJ); Compound 1 about 150 μM added to testicular extracts", "result": "abrogates end joining"}, {"measurement": "Complementation by purified Ligase IV/XRCC4 of inhibited end joining", "setting": "DNA end joining (NHEJ); Compound 1 about 150 μM, Ligase IV/XRCC4 30, 60, 120 fmol added", "result": "restores joining for all the ends"}, {"measurement": "Inhibition of end joining (EJ) of various types of DSBs", "setting": "DNA end joining (NHEJ); cell-free repair system from rat testes, compatible, noncompatible, blunt ends", "result": "inhibits end joining (EJ) irrespective of type and configurations of DSB"}, {"measurement": "Inhibition of DNA end joining (joining efficiency)", "setting": "DNA end joining (NHEJ); rat testes extracts about 0.5 μg, inhibitors about 150 μM, 75 bp oligomeric DNA with 4 nt 5' overhangs", "result": "most potent inhibitor"}, {"measurement": "Joining by purified Ligase IV", "setting": "Ligase IV/XRCC4 complex", "result": "blocks joining"}, {"measurement": "Band corresponding to Ligase IV/XRCC4 supershift on KU:DNA", "setting": "[4]", "result": "dose-dependent reduction"}, {"measurement": "Solubility in dimethyl formamide (DMF), dimethyl sulfoxide (DMSO)", "setting": "[5]; DMF, DMSO", "result": "soluble"}, {"measurement": "Solubility in chloroform (CHCl3)", "setting": "[5]; chloroform", "result": "Insoluble"}, {"measurement": "Solubility in ethanol", "setting": "[5]; ethanol", "result": "Partially soluble"}, {"measurement": "γH2AX foci", "setting": "HeLa cells", "result": "increase in γH2AX foci in a concentration-dependent manner"}]}
